The test system of assay [1] is CIA mice. Put plainly: Collagen-specific antibody and inflammatory factors in serum of CIA mice (ELISA, multi-factor kit). It counts as in vivo, DBA/1 mice. Conditions: 1600 ug/kg i.p., vs model group. Here is the method:
(§1) After 3 days of adaptation, DBA/1 mice were weighed and began to model. Six were randomly selected as the normal group, and the rest were the experimental group.
(§2) Day 0: Take bovine type IT collagen (4 mg/ml) and vortex and mix with an equal volume of CFA (4 mg/ml). It is better to not disperse on the water, and 100 ul/head is injected intradermally into the tail of the mouse.
(§3) Day 21: Take bovine type II collagen (4 mg/ml) and vortex mixed with an equal volume of IFA (4 mg/ml) until the droplets are not dispersed on the water. The mice are injected intradermally with 100 ul/head. On the 30th day, the model was successfully established. […] The drug was administered by injection once a day for 18 days.
(§4) One-Way ANOVA statistical analysis of the data using Graphpad Prism 5 was considered statistically significant at P<0.05. “*” indicates P<0.05, “**” indicates P<0.01, and “***” indicates P<0.001.
The ELISA kit and multi-factor kit were used to determine the collagen-specific antibody Ig G and pro-inflammatory factors IL-17, TNF-α, IL-6, IFN-γ and anti-inflammatory factor IL-10 in the serum of each group of mice. Compared with the normal control group, the collagen-specific antibody Ig G and the pro-inflammatory factors IL-17, TNF-α, IL-6, IFN-γ in the serum of the model group mice.
On the technique in general: In an ELISA, binding on a coated surface is turned into a signal by an enzyme label.

Assay [2] relates to CIA mice. Put plainly: Joint histology of CIA mice (HE staining, TNF-α immunohistochemistry, TRAP staining). It counts as in vivo, DBA/1 mice. Particulars: for inflammatory cell infiltration / joint damage / joint structure: HE staining of joint.
The test system of assay [3] is CIA mice. Put plainly: Treg (Foxp3) and Th1, Th2, Th17 expression in T cells/splenocytes of CIA mice. It counts as in vivo, DBA/1 mice. Conditions: vs model group; for expression level of Foxp3 in Treg cells: CIA mice; for expression level of IFN-γ (Th1) / expression level of IL-17 (Th17) / expression of IL-4 (Th2): splenocytes of CIA mice. As to the method: as §1, §2, §3, §4
Studies have shown that Th17 cells secrete high levels of IL-17, which stimulates the secretion of matrix metalloproteinase-1, IL-1β by FLS. TNF-α and other co-inducing NF-κB receptor activator ligands are involved in the bone destruction of RA and inflammatory damage in tissues. The effect was observed by measuring the expression of helper T cells in splenocytes.

The test system of assay [4] is CIA mice. Put plainly: Micro-CT detection of bone destruction in CIA mice. It counts as in vivo, DBA/1 mice. Particulars: for trabecular bone damage: Micro-CT of trabecular bone; for trabecular bone damage / degree of bone destruction, hind limbs: CIA mice; for degree of bone destruction, hind limbs: peptides 1600 ug/kg, infliximab 4 mg/kg i.p.
Assay [5] addresses TNFR1. Description: MST, fluorescently labelled TNFR1, TNF-α titrated, no SN10.
The target of assay [6] is TNFR2. Description: MST, fluorescently labelled TNFR2, TNF-α titrated, no SN10.
The target in assay [7] is TNFR2. Put plainly: MST, fluorescently labelled TNFR2, TNF-α titrated in the presence of 100 µM SN10; apparent KD.
Another assay has as its target TNF-α. Description: MST, fluorescently labelled TNF-α, TNFR1 titrated, no SN10.
For assay [8], the target named is TNFR1.
Target sequence in this assay (P19438 whole entry): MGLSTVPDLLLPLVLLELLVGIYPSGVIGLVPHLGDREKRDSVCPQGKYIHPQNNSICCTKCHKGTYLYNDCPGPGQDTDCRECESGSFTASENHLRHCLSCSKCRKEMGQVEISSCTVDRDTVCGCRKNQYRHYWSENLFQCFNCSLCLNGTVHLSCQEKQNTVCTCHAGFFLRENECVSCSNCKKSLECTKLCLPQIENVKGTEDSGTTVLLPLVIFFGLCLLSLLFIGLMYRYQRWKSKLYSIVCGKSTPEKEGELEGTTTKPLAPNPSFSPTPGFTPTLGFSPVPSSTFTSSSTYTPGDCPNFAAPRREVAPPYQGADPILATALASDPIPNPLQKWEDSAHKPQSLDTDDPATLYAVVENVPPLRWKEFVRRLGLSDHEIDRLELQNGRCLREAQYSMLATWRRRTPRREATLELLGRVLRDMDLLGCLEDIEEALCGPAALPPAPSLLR
The target in assay [9] is TNFR1. This is another data set of the same source.
Target sequence in this assay (P19438 whole entry): as above
The target of assay [10] is TNFR1. Description: BIAcore SPR, TNFR1 coated on CM-5 chip, peptide injected.
Target sequence in this assay (P19438 whole entry): as above
For assay [11], the target named is TNFR1. Put plainly: MST, fluorescently labelled TNFR1 with an SN10 dilution series.
Target sequence in this assay (P19438 whole entry): as above
Setting [12] is: trabecular bone, Micro-CT, vs model group.

This note sets out measurements from patent US20200188471A1 (GUILIN EIGHT PLUS ONE PHARMACEUTICAL CO., LTD., priority 2017, published 2020).

Like-named read-outs stand apart in the source and are kept apart here. No end group written: not given here.

Chain of TNF-α (ligand) (P01375 77-233): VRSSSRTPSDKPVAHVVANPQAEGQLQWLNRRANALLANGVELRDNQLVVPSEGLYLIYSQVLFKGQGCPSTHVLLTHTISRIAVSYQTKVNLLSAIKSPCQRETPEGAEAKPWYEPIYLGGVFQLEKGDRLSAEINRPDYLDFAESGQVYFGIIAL
Chain of TNF-α (P01375 77-233): as above

Consider “PEG-SN10: Hydrostatin-SN10 modified by mPEG2000, carboxyl of mPEG2000 connected to free amino group of N-terminal aspartic acid (mPEG2000-DEQHLETELH)”, for which, in the assay with CIA mice [1], the “content of IFN-γ in serum” value is reported as “significantly reduced”, the “content of IL-6 in serum” value is recorded as “significantly reduced”, the “content of IL-17 in serum” value is “significantly reduced” and the “content of TNF-α in serum” value is on record as “significantly reduced”. Moreover, in the assay on CIA mice [1], the “content of anti-inflammatory factor IL10 in serum” value was “Significantly increased” and the “content of collagen-specific antibody Ig G in serum” value is “significantly reduced”. For the same molecule, in the assay with CIA mice [2], the inflammatory cell infiltration entry is given as “weak inflammatory cell infiltration”, the joint damage result was “significantly weakened” and the joint structure entry is “complete joint structure”. For the same molecule, in the assay with CIA mice [2] (TRAP staining, vs model group), the osteoclasts in joints entry is “reduced osteoclasts” and the “tartrate-resistant phosphatase (TRAP) in joints” value is “reduced”. Further, the “amount of expression of TNF-α in the joints” value in the assay with CIA mice [2] (immunohistochemistry, vs model group) was “reduced”. In addition, in the assay with CIA mice [3], the “expression level of Foxp3 in Treg cells” value is “significantly increased”, the “expression level of IFN-γ (Th1)” value is “significantly down-regulated”, the “expression level of IL-17 (Th17)” value is given as “significantly down-regulated” and the “expression of IL-4 (Th2)” value is “up-regulated”. For the same molecule, the trabecular bone damage entry in the assay with CIA mice [4] (vs model group) is listed as “significantly reduced bone damage”. The “degree of bone destruction, hind limbs” value in the assay with CIA mice [4] (Micro-CT) is recorded as “significantly reduced the degree of bone destruction”. Further, in the assay on CIA mice [4] (setting [12]), the “bone area/tissue volume (BS/TV)” value is reported as “significantly up-regulated”, the “bone mineral density (BMD)” value was “significantly up-regulated”, the “bone surface area/bone volume (BS/BV)” value is given as “significant down” and the “bone volume/tissue volume (BV/TV)” value is recorded as “significantly up-regulated”. Besides, in the assay with CIA mice [4] (setting [12]), the “number of trabeculae (Th.N)” value was “significantly up-regulated”, the “trabecular model factor (Tb.pf)” value is “significant down”, the “trabecular separation (Tb.sp)” value is given as “significant down” and the “trabecular thickness (Tb.Th)” value was “significantly up-regulated”.

As for TNF-α (ligand), the Kd in the assay with TNFR1 [5] came to 116 nM; with TNFR2 [6], 328 nM; with TNFR2 [7], 384 nM.

Molecule TNFR1 (receptor) registered a Kd with TNF-α of 2.84 nM.

“infliximab: anti-TNF-α monoclonal antibody, positive drug [reference compound]”: in the assay with CIA mice [2], the inflammatory cell infiltration entry was “weak inflammatory cell infiltration”, the joint damage entry is given as “significantly weakened” and the joint structure entry is recorded as “complete joint structure”. In the assay on CIA mice [3], the “expression level of Foxp3 in Treg cells” value is “significantly increased”, the “expression level of IFN-γ (Th1)” value is on record as “significantly down-regulated”, the “expression level of IL-17 (Th17)” value is listed as “significantly down-regulated” and the “expression of IL-4 (Th2)” value is listed as “up-regulated”. Besides, in the assay on CIA mice [4] (vs model group), the trabecular bone damage result is “significantly reduced bone damage”. The “degree of bone destruction, hind limbs” value in the assay on CIA mice [4] (Micro-CT) is on record as “significantly reduced the degree of bone destruction”.

As for DEQHLETELH (modifications not checked) [selective TNFR1 antagonist peptide Hydrostatin-SN10], the Kd turned out to be 2830 nM in the assay with TNFR1 [8], 2780 nM with TNFR1 [9], 2800 nM with TNFR1 [10] and 2800 nM in the assay with TNFR1 [11].
